# Measured values as given in US20070128217A1 (priority 2003, published 2007).
# Assays:
# [1] = system: rabbit serum obtained by immunizing a rabbit with the SARS-CoV strain Frankfurt 1; assay type: binding; set-up: Binding of a rabbit serum to linear peptides / Binding of a rabbit serum to looped peptides / Rabbit serum linear peptides / Rabbit serum looped peptides / Binding of a rabbit serum to linear peptides of protein N of SARS-CoV Urbani (Rabbit serum linear peptides) / Binding of a rabbit serum to looped/cyclic peptides of protein N of SARS-CoV Urbani (Rabbit serum looped peptides): unit not given here
# [2] = system: antibodies in sera from SARS patients (sera 1a, 1b, 2, 6, 37, 62, London, SARS-yellow, SARS-green); assay type: binding, human; set-up: Binding of serum 6 to linear peptides of protein X1 of SARS-CoV Urbani / Binding of serum 37 to linear peptides of protein X1 of SARS-CoV Urbani / Binding of serum 6 to looped/cyclic peptide (PEPSCAN-ELISA) / Binding of serum 37 to looped/cyclic peptide (PEPSCAN-ELISA) / Binding of serum 37 to looped/cyclic peptides of protein X1 of SARS-CoV Urbani / Binding of serum 6 to linear peptides of protein X2 / Binding of serum 37 to linear peptides of protein X2 / Binding of serum 37 to looped/cyclic peptides of protein X2 of SARS-CoV Urbani / Binding of serum 6 to linear peptides of protein M of SARS-CoV Urbani / Binding of serum 37 to linear peptides of protein M of SARS-CoV Urbani / Binding of serum 6 to looped/cyclic peptides of protein M of SARS-CoV Urbani / Binding of serum 37 to looped/cyclic peptides of protein M of SARS-CoV Urbani / Binding of serum 6 to linear peptides of protein X3 of SARS-CoV Urbani / Binding of serum 37 to linear peptides of protein X3 of SARS-CoV Urbani / Binding of serum 37 to looped/cyclic peptides of protein X3 of SARS-CoV Urbani / Binding of serum 6 to linear peptides of protein X4 of SARS-CoV Urbani / Binding of serum 37 to linear peptides of protein X4 of SARS-CoV Urbani / Binding of serum 37 to looped/cyclic peptides of protein X4 of SARS-CoV Urbani / Binding of serum 6 to linear peptides of protein X5 of SARS-CoV Urbani / Binding of serum 37 to linear peptides of protein X5 of SARS-CoV Urbani / Binding of serum 37 to looped/cyclic peptides of protein X5 of SARS-CoV Urbani / Binding of serum 6 to linear peptides of protein N of SARS-CoV Urbani / Binding of serum 37 to linear peptides of protein N of SARS-CoV Urbani / Binding of serum 6 to linear peptide (PEPSCAN-ELISA) / Binding of serum 1a to looped/cyclic peptides of protein N of SARS-CoV Urbani / Binding of serum 1b to looped/cyclic peptides of protein N of SARS-CoV Urbani / Binding of serum 2 to looped/cyclic peptides of protein N of SARS-CoV Urbani / Binding of serum 6 to looped/cyclic peptides of protein N of SARS-CoV Urbani / Binding of serum 37 to looped/cyclic peptides of protein N of SARS-CoV Urbani / Binding of serum 62 to looped/cyclic peptides of protein N of SARS-CoV Urbani / Binding of serum London to looped/cyclic peptides of protein N of SARS-CoV Urbani / Binding of serum SARS-green to looped/cyclic peptides of protein N of SARS-CoV Urbani: unit not given here
# [3] = system: control sera (pooled serum of ten healthy LUMC hospital workers; commercial negative donor pooled serum from the Dutch bloodbank); assay type: binding, human; set-up: Binding of Control serum LUMC to linear peptides / Binding of Control serum Blood-bank to linear peptides / Binding of Control serum LUMC to looped peptides / Binding of Control Serum Blood-Bank to Looped peptides / Binding of Control serum LUMC to linear peptides of the protein M of SARS-CoV Urbani / Binding of Control serum Blood-bank to linear peptides of the protein M of SARS-CoV Urbani / Binding of Control serum LUMC to looped peptides of the protein M of SARS-CoV Urbani / Binding of Control Serum Blood-Bank to Looped peptides of the protein M of SARS-CoV Urbani: unit not given here
sequence,measurement,setting,value
KDLPKEITVATSRTL,Rabbit serum linear peptides,[1],0.2
same,Rabbit serum looped peptides,[1],0.3
same,Binding of serum 1a to linear peptides of protein M of SARS-CoV Urbani,[2],0.7
same,Binding of serum 1a to looped/cyclic peptides of protein M of SARS-CoV Urbani,[2],0.6
same,Binding of serum 1b to linear peptides of protein M of SARS-CoV Urbani,[2],0.6
same,Binding of serum 1b to looped/cyclic peptides of protein M of SARS-CoV Urbani,[2],0.6
same,Binding of serum 2 to linear peptides of protein M of SARS-CoV Urbani,[2],0.6
same,Binding of serum 2 to looped/cyclic peptides of protein M of SARS-CoV Urbani,[2],0.7
same,Binding of serum 6 to linear peptides of protein M of SARS-CoV Urbani,[2],0.5
same,Binding of serum 6 to looped/cyclic peptides of protein M of SARS-CoV Urbani,[2],1.1
same,Binding of serum 37 to linear peptides of protein M of SARS-CoV Urbani,[2],0.5
same,Binding of serum 37 to looped/cyclic peptides of protein M of SARS-CoV Urbani,[2],0.6
same,Binding of serum 62 to linear peptides of protein M of SARS-CoV Urbani,[2],0.5
same,Binding of serum 62 to looped/cyclic peptides of protein M of SARS-CoV Urbani,[2],0.6
same,Binding of serum London to linear peptides of protein M of SARS-CoV Urbani,[2],0.3
same,Binding of serum London to looped/cyclic peptides of protein M of SARS-CoV Urbani,[2],1.1
same,Binding of serum SARS-green to linear peptides of protein M of SARS-CoV Urbani,[2],0.5
same,Binding of serum SARS-green to looped/cyclic peptides of protein M of SARS-CoV Urbani,[2],0.3
same,Binding of serum SARS-yellow to linear peptides of protein M of SARS-CoV Urbani,[2],0.2
same,Binding of serum SARS-yellow to looped/cyclic peptides of protein M of SARS-CoV Urbani,[2],0.9
same,Binding of Control Serum Blood-Bank to Looped peptides of the protein M of SARS-CoV Urbani,[3],0.6
same,Binding of Control serum Blood-bank to linear peptides of the protein M of SARS-CoV Urbani,[3],0.7
same,Binding of Control serum LUMC to linear peptides of the protein M of SARS-CoV Urbani,[3],0.6
same,Binding of Control serum LUMC to looped peptides of the protein M of SARS-CoV Urbani,[3],0.8
KKVSTNLCTHSFRKK,Binding of a rabbit serum to linear peptides,[1],0.3
same,Binding of a rabbit serum to looped peptides,[1],0.1
same,Binding of serum 1a to looped/cyclic peptides of protein X2 of SARS-CoV Urbani,[2],0.5
same,Binding of serum 1b to looped/cyclic peptides of protein X2 of SARS-CoV Urbani,[2],0.3
same,Binding of serum 2 to looped/cyclic peptides of protein X2 of SARS-CoV Urbani,[2],0.7
same,Binding of serum 6 to looped/cyclic peptides of protein X2 of SARS-CoV Urbani,[2],0.5
same,Binding of serum 37 to looped/cyclic peptides of protein X2 of SARS-CoV Urbani,[2],0.5
same,Binding of serum 62 to looped/cyclic peptides of protein X2 of SARS-CoV Urbani,[2],0.6
same,Binding of serum London to looped/cyclic peptides of protein X2 of SARS-CoV Urbani,[2],0.2
same,Binding of serum SARS-green to looped/cyclic peptides of protein X2 of SARS-CoV Urbani,[2],0.3
same,Binding of serum SARS-yellow to looped/cyclic peptides of protein X2 of SARS-CoV Urbani,[2],0.5
same,"Recognition of the peptide by sera of SARS-CoV infected individuals, and form (linear, looped/cyclic) in which it is recognized",[2],recognized in linear form
same,Binding of Control Serum Blood-Bank to Looped peptides,[3],0.5
same,Binding of Control serum Blood-bank to linear peptides,[3],0.7
same,Binding of Control serum LUMC to linear peptides,[3],0.4
same,Binding of Control serum LUMC to looped peptides,[3],0.8
HLLLVAAGMEAQFLY,Binding of a rabbit serum to linear peptides,[1],0.5
same,Binding of a rabbit serum to looped peptides,[1],0.4
same,Binding of serum 1a to linear peptides of protein X1 of SARS-CoV Urbani,[2],0.9
same,Binding of serum 1a to looped/cyclic peptide (PEPSCAN-ELISA),[2],0.5
same,Binding of serum 1b to linear peptides of protein X1 of SARS-CoV Urbani,[2],0.7
same,Binding of serum 1b to looped/cyclic peptide (PEPSCAN-ELISA),[2],0.6
same,Binding of serum 2 to linear peptides of protein X1 of SARS-CoV Urbani,[2],0.6
same,Binding of serum 2 to looped/cyclic peptide (PEPSCAN-ELISA),[2],0.6
same,Binding of serum 6 to linear peptides of protein X1 of SARS-CoV Urbani,[2],0.5
same,Binding of serum 6 to looped/cyclic peptide (PEPSCAN-ELISA),[2],0.1
same,Binding of serum 37 to linear peptides of protein X1 of SARS-CoV Urbani,[2],0.7
same,Binding of serum 37 to looped/cyclic peptide (PEPSCAN-ELISA),[2],0.6
same,Binding of serum 62 to linear peptides of protein X1 of SARS-CoV Urbani,[2],0.7
same,Binding of serum 62 to looped/cyclic peptide (PEPSCAN-ELISA),[2],0.6
same,Binding of serum London to linear peptides of protein X1 of SARS-CoV Urbani,[2],0.3
same,Binding of serum London to looped/cyclic peptide (PEPSCAN-ELISA),[2],0.2
same,Binding of serum SARS-green to linear peptides of protein X1 of SARS-CoV Urbani,[2],0.2
same,Binding of serum SARS-green to looped/cyclic peptide (PEPSCAN-ELISA),[2],0.4
same,Binding of serum SARS-yellow to linear peptides of protein X1 of SARS-CoV Urbani,[2],0.6
same,Binding of serum SARS-yellow to looped/cyclic peptide (PEPSCAN-ELISA),[2],0.3
same,Binding of Control Serum Blood-Bank to Looped peptides,[3],0.6
same,Binding of Control serum Blood-bank to linear peptides,[3],0.6
same,Binding of Control serum LUMC to linear peptides,[3],0.7
same,Binding of Control serum LUMC to looped peptides,[3],0.4
